These molecules were tested against DNA-dependent protein kinase catalytic subunit (Homo sapiens, UniProt P78527) (assay: DNA-PK Enzyme Inhibitory Assay).
Description: The assays of DNA-PK were performed by Reaction Biology Corporation, One Great Valley Parkway, Suite 2 Malvern, PA 19355 USA. All Compounds were dissolved in DMSO (negative control solvent) and tested for their ability to inhibit human DNA-PK enzyme activity. All synthesized compounds were tested in a 10-dose IC50 profile with 4-fold serial dilutions starting at concentration 100 μM. The control compound, LY294002 was tested in a 10-dose IC50 profile with 3-fold serial dilutions starting at 10 μM concentration. Reactions were carried out using 20 μM peptide substrate [EPPLSQEAFADLWKK], 10 μg/ml DNA and 10 μM ATP using the HTRF assay format.

DNA-dependent protein kinase catalytic subunit, sequence (P78527 whole entry): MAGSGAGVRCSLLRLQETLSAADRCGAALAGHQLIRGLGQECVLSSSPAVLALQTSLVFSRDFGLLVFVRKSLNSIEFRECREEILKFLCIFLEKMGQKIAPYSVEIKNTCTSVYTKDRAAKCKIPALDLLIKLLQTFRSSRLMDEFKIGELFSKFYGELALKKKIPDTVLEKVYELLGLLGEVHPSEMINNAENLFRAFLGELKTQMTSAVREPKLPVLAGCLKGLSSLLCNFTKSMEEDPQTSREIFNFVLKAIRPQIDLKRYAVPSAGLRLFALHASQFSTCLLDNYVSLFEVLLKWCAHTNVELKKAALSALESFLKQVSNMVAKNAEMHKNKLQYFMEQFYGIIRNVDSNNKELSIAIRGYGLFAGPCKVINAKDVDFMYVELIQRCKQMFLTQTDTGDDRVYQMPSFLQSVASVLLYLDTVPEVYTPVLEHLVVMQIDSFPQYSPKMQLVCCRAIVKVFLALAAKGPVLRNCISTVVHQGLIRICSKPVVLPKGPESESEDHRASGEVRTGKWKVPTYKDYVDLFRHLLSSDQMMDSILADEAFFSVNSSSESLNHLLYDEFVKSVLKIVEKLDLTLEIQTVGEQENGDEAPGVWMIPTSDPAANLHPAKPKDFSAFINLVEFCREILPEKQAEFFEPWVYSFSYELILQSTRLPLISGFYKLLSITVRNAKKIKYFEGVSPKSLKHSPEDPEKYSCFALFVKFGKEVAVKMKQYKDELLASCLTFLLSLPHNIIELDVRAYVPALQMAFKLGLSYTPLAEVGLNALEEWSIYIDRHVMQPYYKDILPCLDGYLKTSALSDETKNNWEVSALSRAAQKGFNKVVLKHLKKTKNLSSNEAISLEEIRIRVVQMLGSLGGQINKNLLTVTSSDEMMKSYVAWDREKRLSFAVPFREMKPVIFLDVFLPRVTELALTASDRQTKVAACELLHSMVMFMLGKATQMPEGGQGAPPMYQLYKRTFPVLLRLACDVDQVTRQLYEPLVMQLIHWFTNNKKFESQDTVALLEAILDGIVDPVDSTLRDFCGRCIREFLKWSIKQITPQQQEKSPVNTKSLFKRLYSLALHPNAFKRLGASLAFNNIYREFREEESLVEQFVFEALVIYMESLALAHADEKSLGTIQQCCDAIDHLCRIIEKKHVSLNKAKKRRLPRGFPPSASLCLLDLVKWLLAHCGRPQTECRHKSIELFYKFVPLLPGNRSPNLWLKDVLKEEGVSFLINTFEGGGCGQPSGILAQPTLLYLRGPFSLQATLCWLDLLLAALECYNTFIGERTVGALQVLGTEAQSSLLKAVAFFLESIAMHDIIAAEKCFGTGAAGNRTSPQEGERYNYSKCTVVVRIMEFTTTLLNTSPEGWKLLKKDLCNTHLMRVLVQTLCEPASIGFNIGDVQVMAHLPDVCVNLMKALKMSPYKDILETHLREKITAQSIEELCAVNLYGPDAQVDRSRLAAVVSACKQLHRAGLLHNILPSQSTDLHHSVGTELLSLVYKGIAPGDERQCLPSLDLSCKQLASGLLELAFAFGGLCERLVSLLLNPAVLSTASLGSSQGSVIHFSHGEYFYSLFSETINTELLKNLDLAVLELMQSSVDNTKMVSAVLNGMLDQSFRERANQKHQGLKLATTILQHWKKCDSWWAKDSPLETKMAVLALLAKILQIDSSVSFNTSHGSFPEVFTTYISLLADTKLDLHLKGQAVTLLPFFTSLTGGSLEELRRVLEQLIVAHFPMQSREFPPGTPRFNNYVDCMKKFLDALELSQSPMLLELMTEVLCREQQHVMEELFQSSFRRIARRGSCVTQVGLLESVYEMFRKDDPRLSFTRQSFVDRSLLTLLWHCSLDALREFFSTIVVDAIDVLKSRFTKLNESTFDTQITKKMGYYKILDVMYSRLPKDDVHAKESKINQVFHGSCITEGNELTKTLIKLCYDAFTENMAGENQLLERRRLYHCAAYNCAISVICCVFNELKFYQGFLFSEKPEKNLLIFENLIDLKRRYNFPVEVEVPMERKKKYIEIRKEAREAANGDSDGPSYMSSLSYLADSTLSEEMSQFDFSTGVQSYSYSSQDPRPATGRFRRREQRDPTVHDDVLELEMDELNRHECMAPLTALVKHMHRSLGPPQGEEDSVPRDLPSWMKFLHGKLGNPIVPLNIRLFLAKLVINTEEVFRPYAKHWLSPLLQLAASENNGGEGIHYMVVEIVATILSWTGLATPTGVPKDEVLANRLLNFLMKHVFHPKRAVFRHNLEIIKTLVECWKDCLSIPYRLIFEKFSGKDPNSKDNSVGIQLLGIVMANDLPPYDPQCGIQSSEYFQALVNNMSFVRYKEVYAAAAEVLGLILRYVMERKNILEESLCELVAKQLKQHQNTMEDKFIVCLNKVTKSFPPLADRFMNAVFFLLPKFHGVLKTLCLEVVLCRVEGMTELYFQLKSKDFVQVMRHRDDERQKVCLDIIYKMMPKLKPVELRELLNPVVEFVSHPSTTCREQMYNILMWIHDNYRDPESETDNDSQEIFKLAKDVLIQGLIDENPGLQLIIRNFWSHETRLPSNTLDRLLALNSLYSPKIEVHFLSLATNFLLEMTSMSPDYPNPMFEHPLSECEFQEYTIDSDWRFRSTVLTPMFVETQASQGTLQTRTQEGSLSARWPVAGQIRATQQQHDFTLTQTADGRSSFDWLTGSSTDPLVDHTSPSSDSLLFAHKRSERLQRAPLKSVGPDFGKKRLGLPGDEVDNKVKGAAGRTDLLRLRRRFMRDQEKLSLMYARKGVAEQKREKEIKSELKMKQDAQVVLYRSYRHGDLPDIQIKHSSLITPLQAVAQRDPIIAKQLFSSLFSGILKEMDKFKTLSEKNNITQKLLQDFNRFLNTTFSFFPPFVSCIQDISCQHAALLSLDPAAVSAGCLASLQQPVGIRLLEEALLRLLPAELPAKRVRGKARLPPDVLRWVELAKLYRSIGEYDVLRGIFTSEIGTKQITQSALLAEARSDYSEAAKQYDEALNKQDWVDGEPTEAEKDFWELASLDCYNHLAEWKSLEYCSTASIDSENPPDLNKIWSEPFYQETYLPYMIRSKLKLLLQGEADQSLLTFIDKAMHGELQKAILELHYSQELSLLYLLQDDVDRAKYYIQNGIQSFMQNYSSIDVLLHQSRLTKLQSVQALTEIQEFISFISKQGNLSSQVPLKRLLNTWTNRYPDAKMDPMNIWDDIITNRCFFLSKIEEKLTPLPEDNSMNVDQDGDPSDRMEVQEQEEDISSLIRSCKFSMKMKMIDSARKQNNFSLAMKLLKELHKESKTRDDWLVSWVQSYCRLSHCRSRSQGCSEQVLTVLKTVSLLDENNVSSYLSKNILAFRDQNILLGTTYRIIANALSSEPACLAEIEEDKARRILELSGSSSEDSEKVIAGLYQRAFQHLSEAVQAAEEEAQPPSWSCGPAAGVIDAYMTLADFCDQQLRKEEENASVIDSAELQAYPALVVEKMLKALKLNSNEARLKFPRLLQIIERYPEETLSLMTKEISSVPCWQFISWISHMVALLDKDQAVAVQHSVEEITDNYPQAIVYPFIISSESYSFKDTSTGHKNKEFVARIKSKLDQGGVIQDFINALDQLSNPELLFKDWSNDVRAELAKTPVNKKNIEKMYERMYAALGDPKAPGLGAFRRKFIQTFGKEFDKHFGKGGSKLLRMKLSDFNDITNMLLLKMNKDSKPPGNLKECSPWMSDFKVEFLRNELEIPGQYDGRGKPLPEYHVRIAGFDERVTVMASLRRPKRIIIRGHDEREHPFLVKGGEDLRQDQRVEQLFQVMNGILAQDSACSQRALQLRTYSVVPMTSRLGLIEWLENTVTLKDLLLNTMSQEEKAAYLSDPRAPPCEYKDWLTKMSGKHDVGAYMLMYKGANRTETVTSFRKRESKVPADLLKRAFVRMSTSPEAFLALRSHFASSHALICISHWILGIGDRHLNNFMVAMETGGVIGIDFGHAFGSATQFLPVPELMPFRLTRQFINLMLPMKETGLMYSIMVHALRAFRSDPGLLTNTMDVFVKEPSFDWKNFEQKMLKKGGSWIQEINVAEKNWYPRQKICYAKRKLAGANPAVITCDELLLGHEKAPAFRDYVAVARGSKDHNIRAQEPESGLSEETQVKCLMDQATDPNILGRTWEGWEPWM

| SMILES | IC50 [µM] |
| --- | --- |
| Cc1c(OCC(=O)Nc2ccc(S(=O)(=O)Nc3ccccn3)cc2)ccc2c(=O)nc(N3CCOCC3)oc12 [2-((8-Methyl-2-morpholino-4-oxo-4H-benzo[e][1,3]oxazin-7-yl)oxy)-N-(4-(N-(pyridin-2-yl)sulfamoyl)phenyl)acetamide (7c)] | 0.25 |
| Cc1c(OCC(=O)Nc2ccc(S(=O)(=O)Nc3nccs3)cc2)ccc2c(=O)nc(N3CCOCC3)oc12 [2-((8-Methyl-2-morpholino-4-oxo-4H-benzo[e][1,3]oxazin-7-yl)oxy)-N-(4-(N-(thiazol-2-yl)sulfamoyl)phenyl)acetamide (7d)] | 3.5 |
| Cc1c(OCC(=O)Nc2ccc(S(N)(=O)=O)cc2)ccc2c(=O)nc(N3CCOCC3)oc12 [2-((8-Methyl-2-morpholino-4-oxo-4H-benzo[e][1,3]oxazin-7-yl)oxy)-N-(4-sulfamoylphenyl)acetamide (7a)] | 40 |
| Cc1noc(NS(=O)(=O)c2ccc(NC(=O)COc3ccc4c(=O)nc(N5CCOCC5)oc4c3C)cc2)c1C [N-(4-(N-(3,4-dimethylisoxazol-5-yl)sulfamoyl)phenyl)-2-((8-methyl-2-morpholino-4-oxo-4H-benzo[e][1,3]oxazin-7-yl)oxy)acetamide (7f)] | 5 |
| CC(=O)NS(=O)(=O)c1ccc(NC(=O)COc2ccc3c(=O)nc(N4CCOCC4)oc3c2C)cc1 [N-(4-(N-acetylsulfamoyl)phenyl)-2-((8-methyl-2-morpholino-4-oxo-4H-benzo[e][1,3]oxazin-7-yl)oxy)acetamide (7b)] | 35 |
| Cc1c(OCC(=O)Nc2ccc(S(=O)(=O)NC(=N)N)cc2)ccc2c(=O)nc(N3CCOCC3)oc12 [N-(4-(N-carbamimidoylsulfamoyl)phenyl)-2-((8-methyl-2-morpholino-4-oxo-4H-benzo[e][1,3]oxazin-7-yl)oxy)acetamide (7e)] | 25 |

The remaining lines, values ahead:

| IC50 [µM] | SMILES |
| --- | --- |
| 20 | Cc1ccc(CNC(=O)COc2ccc3c(=O)nc(N4CCOCC4)oc3c2C)cc1 [2-((8-Methyl-2-morpholino-4-oxo-4H-benzo[e][1,3]oxazin-7-yl)oxy)-N-(4-methylbenzyl)acetamide (9c)] |
| 80 | CCC(C)C(NC(=O)COc1ccc2c(=O)nc(N3CCOCC3)oc2c1C)C(=O)O (stereo not given) [3-Methyl-2-(2-((8-methyl-2-morpholino-4-oxo-4H-benzo[e][1,3]oxazin-7-yl)oxy)acetamido)pentanoic acid (11b)] |
| 100 | Cc1c(OCC(=O)N[C@@H](C)C(=O)O)ccc2c(=O)nc(N3CCOCC3)oc12 [(2-((8-Methyl-2-morpholino-4-oxo-4H-benzo[e][1,3]oxazin-7-yl)oxy)acetyl)alanine (11a)] |
| 35 | Cc1c(OCC(=O)N[C@@H](Cc2ccccc2)C(=O)O)ccc2c(=O)nc(N3CCOCC3)oc12 [(2-((8-Methyl-2-morpholino-4-oxo-4H-benzo[e][1,3]oxazin-7yl)oxy)acetyl)phenylalanine (11c)] |
| 10 | Cc1c(OCC(=O)NCc2ccc(Cl)cc2)ccc2c(=O)nc(N3CCOCC3)oc12 [N-(4-chlorobenzyl)-2-((8-methyl-2-morpholino-4-oxo-4Hbenzo[e][1,3]oxazin-7-yl)oxy)acetamide (9d)] |
| 4 | Cc1c(OCC(=O)NCc2ccc(F)cc2)ccc2c(=O)nc(N3CCOCC3)oc12 [N-(4-fluorobenzyl)-2-((8-methyl-2-morpholino-4-oxo-4Hbenzo[e][1,3]oxazin-7-yl)oxy)acetamide (9e)] |
| 2.5 | Cc1c(OCC(=O)NCc2ccc(O)cc2)ccc2c(=O)nc(N3CCOCC3)oc12 [N-(4-hydroxybenzyl)-2-((8-methyl-2-morpholino-4-oxo-4Hbenzo[e][1,3]oxazin-7-yl)oxy)acetamide (9f)] |
| 15 | COc1ccc(CNC(=O)COc2ccc3c(=O)nc(N4CCOCC4)oc3c2C)cc1 [N-(4-methoxybenzyl)-2-((8-methyl-2-morpholino-4-oxo-4Hbenzo[e][1,3]oxazin-7-yl)oxy)acetamide (9b)] |
| > 100 | Cc1c(OCC(=O)NCc2ccccc2)ccc2c(=O)nc(N3CCOCC3)oc12 [N-benzyl-2-((8-methyl-2-morpholino-4-oxo-4H-benzo[e][1,3]oxazin-7-yl)oxy)acetamide (9a)] |
